Results as given in ChEMBL document CHEMBL2401682, “Evaluation of Jatropha isabelli natural products and their synthetic analogs as potential antimalarial therapeutic agents” (Eur J Med Chem, 2013).

How the values were obtained:
Plasmodium falciparum [1] = assay: Antimalarial activity against chloroquine and pyrimethamine-resistant Plasmodium falciparum K1 infected in O-positive erythrocytes assessed as parasite growth inhibition after 72 hrs by DNA staining-based assay; type: functional, organism-based; conditions: K1, 72 h
Raji = assay: Cytotoxicity against human Raji cells after 72 hrs by celltiter-glo assay; type: cell-based
HepG2 = assay: Cytotoxicity against human HepG2 cells after 72 hrs by celltiter-glo assay; type: cell-based; conditions: HepG2, 72 h
BJ = assay: Cytotoxicity against human BJ cells after 72 hrs by celltiter-glo assay; type: cell-based
HEK293 = assay: Cytotoxicity against HEK293 cells after 72 hrs by celltiter-glo assay; type: cell-based; conditions: Homo sapiens, HEK293, 72 h
Plasmodium falciparum [2] = assay: Antimalarial activity against chloroquine-sensitive Plasmodium falciparum 3D7 infected in O-positive erythrocytes assessed as parasite growth inhibition after 72 hrs by DNA staining-based assay; type: functional, organism-based; conditions: 3D7, 72 h

| Structure (SMILES) | EC50 (Plasmodium falciparum [1]) [µM] | EC50 (Raji) [µM] | EC50 (HepG2) [µM] | EC50 (BJ) [µM] | EC50 (HEK293) [µM] | EC50 (Plasmodium falciparum [2]) [µM] |
| --- | --- | --- | --- | --- | --- | --- |
| C/C1=C/C2=C[C@H](C)C[C@@]23O[C@]2(CC(C)(C)[C@@H](OC(C)C)[C@@H]2C1=O)[C@@H](C)C3=O | 15 | 26 | 26 | 26 | 26 | 15 |
| C=C1CC[C@H]2[C@@H](c3c(C)c(OC(C)=O)c4c(c31)C(=O)C(C)C4)C2(C)C (some centres not stated) | 6.31 | 26 | 26 | 26 | 26 | 15 |
| C[C@@H]1CC[C@H]2CC3=C(C(=O)O)CC[C@@]31C2(C)C | 15 | 26 | 26 |  | 26 | 15 |
| COC(=O)C1=C2C[C@@H]3CC[C@@H](C)[C@]2(CC1)C3(C)C | 15 | 26 | 26 | 26 | 26 | 15 |
| C[C@@H]1CC[C@H]2CC3=C(C=O)CC[C@@]31C2(C)C | 15 | 26 | 26 | 26 | 26 | 15 |
| C[C@@H]1CC[C@H]2CC3=C(CO)CC[C@@]31C2(C)C | 15 | 26 | 26 | 26 | 26 | 15 |
| C[C@@H]1CC[C@H]2CC3C(=O)CC[C@@]31C2(C)C (some centres not stated) | 15 | 26 | 26 | 26 | 26 | 15 |
| CCOC(=O)CNC(=O)[C@H](CS[C@H]1[C@@H]2C(=O)/C(C)=C\C3=C[C@H](C)C[C@@]34O[C@]2(CC1(C)C)[C@@H](C)C4=O)NC(=O)CC[C@H](N)C(=O)O | 15 | 6.09 | 26 | 12.5 | 26 | 15 |
| C[C@@H]1C[C@@]23O[C@@]45CC(C)(C)[C@@H](Sc6ccccc6)[C@@H]4C(=O)C(C)(C=C2[C@H]1Sc1ccccc1)[C@]3(O)[C@@H]5C (some centres not stated) | 5.57 | 26 | 26 | 26 | 26 | 6.45 |
| C/C1=C/[C@]23O[C@H]2[C@H](C)C=C3C(=O)[C@@](C)(O)C(=O)CC(C)(C)/C=C/C1=O | 15 | 26 | 26 | 26 | 26 | 15 |
| C=C1/C=C/C(C)(C)CC2=C(C)C(=O)[C@]3(C[C@@H](C)C=C3/C=C\1C)O2 | 15 | 26 | 26 | 26 | 26 | 15 |
| CC1=C2CC(C)(C)/C=C/C/C(C)=C\C3=C[C@H](C)C[C@]3(O2)C1=O | 15 | 26 | 26 | 26 | 26 | 15 |
| C/C1=C/C2=C[C@H](C)C[C@@]23O[C@]2(CC(C)(C)C[C@@H]2[C@@]1(O)C(F)(F)F)[C@@H](C)C3=O | 15 | 26 | 26 | 26 | 26 | 15 |
| CC1=C2CC(C)(C)/C=C/C(=O)/C(C)=C\C3=C[C@H](C)C[C@]3(O2)[C@@]1(O)C(F)(F)F | 15 | 26 | 26 | 26 | 26 | 15 |
| CC1=C2CC(C)(C)/C=C/C(=O)/C(C)=C\C3=C[C@H](C)C[C@]3(O2)[C@]1(C)O | 15 | 26 | 26 | 26 | 26 | 0.624 |
| CC1=C2CC(C)(C)[C@@H](C)CC(=O)/C(C)=C\C3=C[C@H](C)C[C@]3(O2)C1=O | 15 | 26 | 26 | 26 | 26 | 15 |
| CC1=C2CC(C)(C)/C=C/C(=O)/C(C)=C\C3=C[C@H](C)C[C@]3(O2)[C@@]1(O)C#N | 15 | 21.2 | 26 | 26 | 26 | 15 |
| C/C1=C/C2=C[C@H](C)C[C@@]23O[C@]2(CC(C)(C)C[C@@H]2[C@@]1(O)C#N)[C@@H](C)C3=O | 15 | 26 | 26 | 26 | 8.66 | 15 |
| CC1=C2CC(C)(C)[C@@H]3C=C(OC3)/C(C)=C\C3=C[C@H](C)C[C@]3(O2)C1=O | 15 | 26 | 26 | 26 | 26 | 15 |

| Structure (SMILES) | EC50 (Plasmodium falciparum [1]) [µM] | EC50 (Raji) [µM] | EC50 (HepG2) [µM] | EC50 (BJ) [µM] | EC50 (HEK293) [µM] | EC50 (Plasmodium falciparum [2]) [µM] |
| --- | --- | --- | --- | --- | --- | --- |
| CC1=C2CC(C)(C)/C=C/[C@H](O)/C(C)=C\C3=C[C@H](C)C[C@]3(O2)C1=O | 15 | 26 | 18.7 | 10.6 | 26 | 9.23 |
| CC(=O)O[C@H]1/C=C/C(C)(C)CC2=C(C)C(=O)[C@]3(C[C@@H](C)C=C3/C=C\1C)O2 | 15 | 26 | 26 | 26 | 26 | 3.2 |
| CC1=C2CC(C)(C)/C=C/[C@@H](O)/C(C)=C\C3=C[C@H](C)C[C@]3(O2)C1=O | 15 | 26 | 26 | 26 | 26 | 0.744 |
| CC(=O)O[C@@H]1/C=C/C(C)(C)CC2=C(C)C(=O)[C@]3(C[C@@H](C)C=C3/C=C\1C)O2 | 15 | 26 | 26 | 26 | 26 | 1.63 |
| CC(=O)O[C@H]1/C=C/C(C)(C)CC2=C(C)[C@@H](OC(C)=O)[C@]3(C[C@@H](C)C=C3/C=C\1C)O2 | 15 | 26 | 26 | 26 | 26 | 5.68 |
| CC1=C2CC(C)(C)/C=C/[C@H](OC(=S)n3ccnc3)/C(C)=C\C3=C[C@H](C)C[C@]3(O2)C1=O | 5.85 | 26 | 26 | 26 | 26 | 5.67 |
| CC1=C2CC(C)(C)/C=C/[C@H](OC(=S)Sc3ccccc3)/C(C)=C\C3=C[C@H](C)C[C@]3(O2)C1=O | 15 | 26 | 26 | 26 | 26 | 15 |
| C/C1=C/C2=C[C@H](C)C[C@@]23O[C@]2(CC(C)(C)C[C@@H]2[C@@H]1OC(=S)Sc1ccccc1)[C@@H](C)C3=O | 5.69 | 26 | 26 | 26 | 17.8 | 8.88 |
| C/C1=C/C2=C[C@H](C)C[C@@]23O[C@]2(CC(C)(C)[C@@H](Br)[C@@H]2C1=O)[C@](C)(Br)C3=O | 15 | 4.38 | 26 | 26 | 26 | 15 |
| C/C1=C/C2=C[C@H](C)CC2(Br)C(=O)[C@@]2(C)O[C@@H]([C@@H](Br)C1=O)C(C)(C)CC2=O (some centres not stated) | 15 | 26 | 26 | 26 | 26 | 15 |
| COc1ccc(/C2=C\C(=O)/C(C)=C\C3=C[C@H](C)C[C@@]34OC(=C(C)C4=O)CC2(C)C)cc1 | 15 | 26 | 26 | 26 | 26 | 15 |
| CC1=C2CC(C)(C)/C(c3ccccc3)=C/C(=O)/C(C)=C\C3=C[C@H](C)C[C@]3(O2)C1=O | 15 | 26 | 26 | 26 | 26 | 15 |
| C/C1=C/C2=C[C@H](C)C[C@@]23O[C@]2(CC(C)(C)[C@@H](O)[C@@H]2C1=O)[C@@H](C)C3=O | 15 | 26 | 26 | 10.4 | 26 | 15 |
| CO[C@H]1[C@@H]2C(=O)/C(C)=C\C3=C[C@H](C)C[C@@]34O[C@]2(CC1(C)C)[C@@H](C)C4=O | 15 | 26 | 26 | 26 | 26 | 15 |
| C/C1=C/C2=C[C@H](C)C[C@@]23O[C@]2(CC(C)(C)C4CC1(ON4)O2)C(C)C3=O (some centres not stated) | 15 | 26 | 26 | 26 | 26 | 15 |
| C/C1=C/C2=C[C@H](C)C[C@@]23O[C@]2(CC(C)(C)[C@@H](Nc4ccccc4)[C@@H]2C1=O)[C@@H](C)C3=O | 5.58 | 26 | 26 | 12.6 | 26 | 8.88 |
| CC1=C2CC(C)(C)CCC(=O)C(C)CC3C[C@H](C)C[C@]3(O2)C1=O (mixture of isomers) | 15 | 26 | 26 | 26 | 26 | 15 |
| CC1=C2CC(C)(C)CCC(=O)C(C)CC3=C[C@H](C)C[C@]3(O2)C1=O (mixture of isomers) | 15 | 26 | 26 | 26 | 26 | 15 |
| CC(=O)O[C@H]1CC[C@]2(C)[C@H]3CC[C@]4(C)C(=CC[C@@]5(C(=O)O)CCC(C)(C)C[C@H]54)[C@]3(C)CC[C@H]2C1(C)C [ACETYL ALEURITOLIC ACID] | 15 | 26 | 26 | 26 | 26 | 15 |
